This note sets out measurements from US7498403B2, “Peptides capable of binding to titanium silver silicone” (Japan Science and Technology Agency, priority 2003, dated 2009).

Experiment [1] is described as follows: Adsorption of synthetic peptide to silicon particles, Langmuir adsorption isotherm fitting. Format: binding. The conditions noted are these: Si. Here is the method: (§1) In order to confirm whether the synthetic peptide comprising an amino acid sequence shown in SEQ ID NO: 3 binds to titanium surface, the binding ability of the synthetic peptides comprising an amino acid sequence shown in SEQ ID NO: 3 to titanium particles was examined. 10 mg of titanium particles used in Example 1 was put into an Eppendorf tube, washed twice with 50 mM HEPES-NaOH, 150 mM NaCl. Then, 100 μl of 5 to 40 μM of the synthetic peptides of SEQ ID NO: 3, and the mixture was stirred by rotating by using a rotary shaker rotator RT-50 (Taitec) at room temperature for 2 hours. By centrifuging with a desk-top centrifuge H-1300 (Kokusan, Tokyo), at 13,000 rpm, for 5 sec., the supernatant was removed, mixed with fluoro aldehyde (Pias Rockford, Ill.), and by using a spectrofluorometer (Nippon Bunko, Tokyo), at excitation wave length 342 nm, fluorescent wave length 437 nm, the binding level to titanium was calculated from the peptide concentration of the supernatant. The relative surface area of titanium was calculated from the density and mean particle diameter. Further, the binding ability of the synthetic peptide comprising an amino acid sequence shown in SEQ ID NO: 2 to silicone/tin used in Example 13 was examined by the same method. […]

Experiment [2] in a line: Binding ability of phage clones to titanium particles (eluted phage titer / added phage titer). Conditions: peptide expressed on phage clone; for binding ability to titanium: titanium particles, mutants compared with SEQ ID NO: 3 clone. Here is the method: 10 mg of titanium particle with a particle diameter of […] (Sumitomo Titanium Corporation, Hyogo) was put into a 1.5 ml-Eppendorf tube, and washed twice with a solution of 500 μl of 50 mM tris (hydroxymethyl) aminomethane (herein after referred to as tris (Kishida Chemical (Osaka)) HCl buffer pH 7.5; 150 mM of sodium chloride (Wako Pure Chemicals, Osaka) solution (herein after referred to as TBS) supplemented with 0.1% bovine serum albumin (herein after referred to as BSA), 0.1% Polyoxyethylenesorbitan monolaurate (herein after referred as Tween-20 (Sigma, St. Louis)). Washing of titanium particles was performed by centrifuging with a desktop centrifuge H1300 (Kokusan) at 13,000 rpm, 5 sec, to precipitate titanium particles and to remove supernatant. After washing, in order to block the non-specific adsorption of the phage, the mixture was stirred by rotating with 1 ml of the same solution for 30 min at room temperature by using a rotary shaker rotator RT-50 (Taitec).
By centrifuging with a desktop centrifuge H1300 (Kokusan) at 13,000 rpm, 5 sec, titanium particles were precipitated, the supernatant was removed, and then 1 ml TBS containing peptide-expressing phage library, D12 library expressing linear random peptide of 12 residues (New England Biolabs, Beverly), 17×10^11 plaque-forming unit (herein after referred to as pfu), or C7C library expressing cyclic randam peptide of 7 residues (New Engand Biolabs) 2.0×10^11 pfu, 0.1% BSA and 0.1% Tween-20 solution were added, and stirred by rotating for 2 hours, at room temperature with a rotary shaker, rotator RT-50.
By centrifuging with a desktop centrifuge H1300 (Kokusan) at 13,000 rpm, 5 sec, the supernatant was removed, and the resultant was washed 10 times with 1 ml of TBS, 0.1% Tween-20 solution. Washing was performed by centrifuging at 8000×g, 5 sec, by precipitating titanium particles. After removing washing solution, 1 ml of 0.2 M glycine (Wako Pure Chemicals), HCl buffer pH 2.2 were added and stirred by rotating for 10 min at room temperature with rotator RT-50 (Taitec) to elute phage bound to titanium. Titanium was precipitated by centrifugation, and the supernatant was moved to a separate 1.5 ml-Eppendorf tube. Then, 150 μl of 1M tris/HCl buffer pH 9.1 was added to neutralize, and phage titer in the solution (plaque forming ability per unit solution) was measured according to a common procedure (Molecular Cloning Third Edition, Cold Spring Harbor Laboratory Press).
(§2) By using the phage clone obtained in Example 1, the binding ability to titanium was evaluated by the following experiment. The same method as for panning operation shown in Example 1 was performed. The difference between Example 1 is that the stirring time of titanium and phage clone was 1 hour; the Tween 20 concentration and BSA concentration in each solution was 0.5%, and 1%, respectively, and that the titer of the phage added was 10^9 pfu for clone from D12, and 10^11 pfu for clone from C7C.
For clone strongly bound particularly with titanium (SEQ ID NO: 3) in Example 2, point mutants substituted by alanine having only one methyl group in the side chain was prepared and the change of binding ability to titanium was examined for each mutant phage. As point mutant comprises alanine in the 6th position in the expressed sequence, mutants were prepared for all the residues except the 6th residue. The preparation of point mutants was performed by Kunkel method (Molecular Cloning Third Edition, Cold Spring Harbor Laboratory Press). Synthetic DNAs used for preparing point mutants are shown in FIG. 8 (SEQ ID NOs: 40 to 50). The introduction of point mutation was confirmed by determining the DNA sequence of phage DNA. DNA sequencing was performed in the same manner as Example 1. The binding ability to titanium of the obtained point mutants was measured by the method shown in Example 2, by adjusting the phage amount added to 10^10 pfu.
The deletion mutants were prepared by the method shown schematically in FIG. 10. […]

Experiment [3] can be described thus: Binding ability of phage clones to silver particles. The conditions noted are these: peptide expressed on phage clone. Here is the method: as §2
(§3) To investigate the binding specificity of phage clone expressing a peptide comprising an amino acid sequence shown in SEQ ID NO: 3 to metal material, to 10 mg each of gold (purity>99.9%, particle diameter<150 μm)/silver (purity>99.9%, particle diameter<75 μm)/copper (purity>99%, particle diameter 75-150 μm)/platinum (purity>99.9%, particle diameter<75 μm)/iron (purity>99.9%, particle diameter<150 μm)/tin (purity>99.9%, particle diameter<150 μm)/zinc (purity>99.9%, particle diameter<150 μm)/chrome (purity>98%, particle diameter>10 μm)/cobalt (purity>99%, particle diameter<75 μm)/silicon (purity>99%, particle diameter<150 μm) (Kojundo Chemical Lab., Saitama), the binding ability to each metal was examined by the same method of Example 2, by using 10^10 pfu/ml of phage clone expressing a peptide comprising an amino acid sequence shown in SEQ ID NO: 3.
(§4) In order to confirm whether the binding form to silver or silicone, and the sequence specificity of the phage clone expressing a peptide comprising an amino acid sequence shown in SEQ ID NO: 3 is similar as in the case of binding to titanium, the binding ability of the alanine substituted-mutant phage of SEQ ID NOs: 4, 5, 7, 8 used in Example 4 to silver/silicon was examined by the method shown in Example 2.

Experiment [4] is described as follows: Binding ability of phage clones to silicon particles. The conditions noted are these: peptide expressed on phage clone. The procedure: as §2, §3, §4
The nature of experiment [5]: Binding ability of phage clone to copper particles. The conditions noted are these: peptide expressed on phage clone. The procedure:
as §2, §3

Experiment [6] is described as follows: Adsorption of synthetic peptide to titanium particles, Langmuir adsorption isotherm fitting. Format: binding. Conditions: Ti. The procedure: as §1
The nature of experiment [7]: QCM-D300 quartz crystal microbalance analysis of phage binding to titanium sensor. The conditions noted are these: phage clone; frequency and dissipation (viscoelasticity), sensor blocked with BSA. The procedure: As for the clone strongly bound particularly with titanium (expressing peptide of SEQ ID NO: 3), the binding form of titanium surface and phage was examined, by measuring with QCM-D300 (Q-sense AB, Goeteborg), which is a device for quantification of interaction with a quartz crystal microbalance.
For a quartz crystal microbalance, titanium sensor being a genuine part of QCM-D300 was used. The temperature was fixed at 24.99° C., and the actual measurement value was from around 24.68° C. to 24.70° C. It was measured in a condition of blocking the sensor with BSA, and in a condition without blocking. When blocking with BSA is not performed, after measuring the standard value with TBS, the phage solution adjusted so that the phage titer becomes 10^10 pfu/ml was measured continuously. When blocking with BSA is performed, after measuring the standard value with TBS, blocking was conducted by incubating for about 10 min with TBS, 0.1% BSA, and after washing again migrated BSA with TBS, the phage solution adjusted so that the phage titer becomes 10^11 pfu/ml was measured continuously.
From the results shown in FIG. 6, it is clear that the phage clone is bound to the sensor from the change of frequency, under the absence of BSA. […]

Experiment [8] in a line: Binding ability of phage clone to iron particles. Conditions: peptide expressed on phage clone. The procedure:
as §2, §3

Regarding RALPDA [SEQ ID NO: 2], in experiment [1], the “qm (maximum adsorption level)” value is 2.1 ± 0.3 × 10^−7 mole/m^2. In addition, the Kd (commonly a measure of binding affinity in units of concentration) in experiment [1] (read-out: Kd (dissociation constant)) was 13.2 ± 4 µM. In addition, in experiment [2], the “binding ability to titanium” value is on record as “binds”. Moreover, the “binding ability to silver” value in experiment [3] is “binds”. Moreover, the “binding ability to silicon” value in experiment [4] is given as “binds”.
As to RKLPDA [SEQ ID NO: 1], the “binding ability to titanium” value in experiment [2] is “not affected by the deletion”.
For “RKLPDAPGMHTW [SEQ ID NO: 3, tested on phage clone and as synthetic peptide]”, the binding to copper result in experiment [5] is on record as “below the detection limit”. In addition, the “binding ability to titanium treated with hydrogen peroxide” value in experiment [2] (titanium particles treated with 3% hydrogen peroxide for 1 hour) is “increased”. Further, in experiment [2], the “binding ability to titanium” value is listed as “much higher”. For the same substance, the equilibrium dissociation constant (Kd) in experiment [6] (synthetic peptide 5 to 40 μM, 50 mM HEPES-NaOH, 150 mM NaCl, room temperature, 2 hours, read-out: Kd (dissociation constant)) was determined as 11.1 ± 2.8 µM. In addition, the “qm (maximum adsorption level)” value in experiment [6] (synthetic peptide, Langmuir fitting) is reported as 2.5 ± 0.3 × 10^−6 mole/m^2. Also, the “binding form of phage to titanium surface” value in experiment [7] is “bound perpendicularly to titanium surface”. The binding to iron result in experiment [8] is on record as “below the detection limit”.
Take “SEQ ID NO: 4: e3-2-3 mutant, 1st amino acid residue substituted by Ala (AKLPDAPGMHTW)”: in experiment [2], the “binding ability to titanium” value was “significantly impaired”. Besides, in experiment [3], the “binding ability to silver” value is recorded as “same trend as for titanium”. In addition, the “binding ability to silicon” value in experiment [4] was “same trend as for titanium”.
“SEQ ID NO: 5: e3-2-3 mutant, 2nd amino acid residue substituted by Ala (RALPDAPGMHTW)”: the “binding ability to titanium” value in experiment [2] is recorded as “increased”. Also, the “binding ability to silver” value in experiment [3] is “same trend as for titanium”. For the same substance, in experiment [4], the “binding ability to silicon” value is “same trend as for titanium”.
For “SEQ ID NO: 7: e3-2-3 mutant, 4th amino acid residue substituted by Ala (RKLADAPGMHTW)”, in experiment [2], the “binding ability to titanium” value is “the most significantly impaired”. For the same substance, the “binding ability to silver” value in experiment [3] is “same trend as for titanium”. Also, the “binding ability to silicon” value in experiment [4] was “same trend as for titanium”.
Regarding “SEQ ID NO: 8: e3-2-3 mutant, 5th amino acid residue substituted by Ala (RKLPAAPGMHTW)”, the “binding ability to titanium” value in experiment [2] is listed as “significantly impaired”. In experiment [3], the “binding ability to silver” value is “same trend as for titanium”. In addition, in experiment [4], the “binding ability to silicon” value is given as “same trend as for titanium”.
Turning to “SEQ ID NO: 15: Ala is added/inserted to N terminal of e-3-2-3 (ARKLPDAPGMHTW)”, in experiment [2], the “binding ability to titanium” value is given as “increase of the binding ability”.
